Measurements published in ChEMBL document CHEMBL4138122, “Azaphenothiazines - promising phenothiazine derivatives. An insight into nomenclature, synthesis, structure elucidation and biological properties” (Eur J Med Chem, 2017).
Values after ≈ are worked out from the molar mass of the structure shown.

What was measured:
[1] = biological target: Intercellular adhesion molecule 1 (Homo sapiens, UniProt P05362); test: Inhibition of ICAM1 (unknown origin)
Escherichia coli = test: Antibacterial activity against Escherichia coli; format: functional
Bacillus subtilis = test: Antibacterial activity against Bacillus subtilis; format: functional
Staphylococcus aureus = test: Antibacterial activity against Staphylococcus aureus; format: functional
SNB-19 = test: Cytotoxicity against human SNB19 cells; format: functional, cell-based
T47D = test: Cytotoxicity against human T47D cells; format: functional, cell-based
C32 = test: Cytotoxicity against human C32 cells; format: functional, cell-based
PBMC = test: Cytotoxicity in human PBMCs assessed as reduction in cel viability at 50 ug/ml; format: cell-based
MDA-MB-231 = test: Cytotoxicity against human MDA-MB-231 cells; format: functional, cell-based
Liver = test: Antioxidant activity in rat liver microsomal membranes assessed as inhibition of Fe(2+)/ascorbate-induced lipid peroxidation; format: functional, microsomes, microsome
MCF7 = test: Cytotoxicity against human MCF7 cells; format: functional, cell-based

Sequence of Intercellular adhesion molecule 1 (P05362 whole entry): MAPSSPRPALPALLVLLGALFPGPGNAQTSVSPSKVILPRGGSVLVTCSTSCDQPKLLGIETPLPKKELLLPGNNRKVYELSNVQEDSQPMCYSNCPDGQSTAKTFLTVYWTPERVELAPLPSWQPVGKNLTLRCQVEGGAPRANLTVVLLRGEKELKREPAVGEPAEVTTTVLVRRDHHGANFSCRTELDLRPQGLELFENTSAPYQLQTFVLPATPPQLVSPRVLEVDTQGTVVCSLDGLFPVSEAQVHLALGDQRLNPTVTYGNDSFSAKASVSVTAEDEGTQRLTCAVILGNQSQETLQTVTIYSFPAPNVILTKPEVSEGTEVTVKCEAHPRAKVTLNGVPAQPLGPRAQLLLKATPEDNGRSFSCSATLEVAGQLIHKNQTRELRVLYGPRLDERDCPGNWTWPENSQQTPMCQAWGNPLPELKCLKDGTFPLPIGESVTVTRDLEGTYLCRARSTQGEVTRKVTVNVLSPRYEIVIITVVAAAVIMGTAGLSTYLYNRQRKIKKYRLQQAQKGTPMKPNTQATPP

| IC50 [1] | SMILES | IC50 (SNB-19) | IC50 (C32) | further results |
| --- | --- | --- | --- | --- |
| 270 to 1400 nM | c1cnc2c(n1)Nc1cc(CN3CCC3)ccc1S2 |  |  |  |
|  | O=[N+]([O-])c1cnc2c(c1)Sc1cccc(F)c1N2 |  |  | inhibition zone (IZ) (Escherichia coli): 7 - 12 mm; inhibition zone (IZ) (Bacillus subtilis): 8 - 12 mm; inhibition zone (IZ) (Staphylococcus aureus): 8 - 15 mm |
|  | CCN(CC)CC#CCN1c2cnccc2Sc2cccnc21 | 26.1 to 27.5 µg/mL (≈ 80.4 to 84.8 µM) | 26.1 to 27.5 µg/mL (≈ 80.4 to 84.8 µM) | IC50 (T47D): 26.1 to 27.5 µg/mL (≈ 80.4 to 84.8 µM); Activity (PBMC): <= 22% |
|  | C#CCN1c2cccc(C(F)(F)F)c2Sc2cnc3ccccc3c21 |  |  | IC50 (MDA-MB-231): 7.71 µg/mL (≈ 21.6 µM) |
|  | CCN(C)CC#CCN1c2cnccc2Sc2cccnc21 | 26.1 to 27.5 µg/mL (≈ 84.1 to 88.6 µM) | 26.1 to 27.5 µg/mL (≈ 84.1 to 88.6 µM) | IC50 (T47D): 26.1 to 27.5 µg/mL (≈ 84.1 to 88.6 µM); Activity (PBMC): <= 22% |
|  | CCCCOc1ccc2c(c1)Nc1c(c[n+](C)c3ccccc13)S2.[Cl-] | 0.7 to 11.5 µg/mL | 0.5 to 7.5 µg/mL | IC50 (MDA-MB-231): 0.5 to 12 µg/mL |
|  | CCN(CC)CCCN1c2ccc3ccccc3c2Sc2cc3ccccc3nc21 | 0.98 µg/mL (≈ 2.37 µM) | 0.8 µg/mL (≈ 1.93 µM) | IC50 (T47D): 5.9 µg/mL (≈ 14.3 µM) |
|  | c1ccc2nc3c(cc2c1)Sc1ccc2ccccc2c1N3 |  |  | IC50 (Liver): 2 µg/mL |
|  | c1cnc2c(c1)Nc1ccncc1S2 | 0.46 µg/mL (≈ 2.29 µM) | 0.46 µg/mL (≈ 2.29 µM) | IC50 (MCF7): 0.72 µg/mL (≈ 3.58 µM) |
| 270 to 1400 nM | NS(=O)(=O)N1CCN(Cc2ccc3c(c2)Nc2nccnc2S3)CC1 |  |  |  |
| 270 to 1400 nM | O=S(=O)(NC1CCN(Cc2ccc3c(c2)Nc2nccnc2S3)CC1)C(F)(F)F |  |  |  |
|  | C=CCN1c2ccncc2Sc2ncccc21 |  |  | IC50 (MCF7): 28.4 to 32.9 µg/mL (≈ 118 to 136 µM) |
|  | O=[N+]([O-])c1cnc2c(c1)Sc1cc(Br)ccc1N2 |  |  | inhibition zone (IZ) (Escherichia coli): 7 - 12 mm; inhibition zone (IZ) (Bacillus subtilis): 8 - 12 mm; inhibition zone (IZ) (Staphylococcus aureus): 15 mm |
|  | CCn1c(=O)c2c(c3ccccc31)Nc1ccccc1S2 |  |  | MIC (Staphylococcus aureus): >=200 ug |
|  | O=[N+]([O-])c1cnc2c(c1)Sc1cc(F)ccc1N2 |  |  | inhibition zone (IZ) (Escherichia coli): 7 - 12 mm; inhibition zone (IZ) (Bacillus subtilis): 12 mm; inhibition zone (IZ) (Staphylococcus aureus): 8 - 15 mm |
|  | O=c1[nH]c2ccccc2c2c1Sc1ccccc1N2 |  |  | MIC (Staphylococcus aureus): >=200 ug |
| 270 to 1400 nM | c1cnc2c(n1)Nc1cc(CN3CCCCCC3)ccc1S2 |  |  |  |
|  | CCN(CC)CC#CCN1c2ccncc2Sc2ccncc21 |  | 24.8 to 29.2 µg/mL (≈ 76.4 to 90 µM) |  |

| IC50 [1] | SMILES | IC50 (SNB-19) | IC50 (C32) | further results |
| --- | --- | --- | --- | --- |
| 420 to 1000 nM | CC(C)(CCC1CCN(Cc2ccc3c(c2)Nc2nccnc2S3)CC1)C(=O)O |  |  |  |
|  | c1cnc(N2c3ccncc3Sc3ncccc32)nc1 |  |  | IC50 (MCF7): 0.73 µg/mL (≈ 2.61 µM) |
|  | C[n+]1cc2c(c3ccccc31)Nc1cc(OCCN3CCCC3)ccc1S2.[Cl-] | ≤ 3 µg/mL | ≤ 3 µg/mL | IC50 (T47D): ≤ 3 µg/mL; IC50 (MDA-MB-231): ≤ 3 µg/mL |
| 420 to 1000 nM | CC(CCC1CCN(Cc2ccc3c(c2)Nc2nccnc2S3)CC1)C(=O)O (centres undefined) |  |  |  |
|  | C[n+]1cc2c(c3ccccc31)Nc1cc(OCCN3CCCCC3)ccc1S2.[Cl-] | ≤ 3 µg/mL | ≤ 3 µg/mL | IC50 (T47D): ≤ 3 µg/mL; IC50 (MDA-MB-231): ≤ 3 µg/mL |
|  | CN1CCCCC1CCN1c2ccc(F)cc2Sc2cnc3ccccc3c21 (centres undefined) |  |  | IC50 (MCF7): 5.92 to 6.96 µg/mL (≈ 15 to 17.7 µM); IC50 (MDA-MB-231): 5.92 to 6.96 µg/mL (≈ 15 to 17.7 µM) |
| 270 to 1400 nM | NS(=O)(=O)NC1CCN(Cc2ccc3c(c2)Nc2nccnc2S3)CC1 |  |  |  |
| 420 to 1000 nM | O=C(O)CC1CC2CCC(C1)N(Cc1ccc3c(c1)Nc1nccnc1S3)C2 (centres undefined) |  |  |  |
| 470 nM | O=C(O)CCC1CCN(Cc2ccc3c(c2)Nc2nccnc2S3)CC1 |  |  |  |
| 270 to 1400 nM | c1cnc2c(n1)Nc1cc(CN3CCCCC3)ccc1S2 |  |  |  |
|  | C[n+]1cc2c(c3ccccc31)Nc1ccc(N3CCCCC3)cc1S2.[Cl-] | 0.7 to 11.5 µg/mL | 0.5 to 7.5 µg/mL | IC50 (MDA-MB-231): 0.5 to 12 µg/mL |
|  | c1ccc2c3c(cnc2c1)Nc1cnc2ccccc2c1S3 |  |  | IC50 (Liver): 1000 nM |
|  | C(#CCN1c2cnccc2Sc2cccnc21)CN1CCN(c2ccccc2)CC1 | 33.1 µg/mL (≈ 80 µM) | 26.1 to 27.5 µg/mL (≈ 63.1 to 66.5 µM) | IC50 (T47D): 45.8 µg/mL (≈ 111 µM); Activity (PBMC): <= 22% |
|  | C[n+]1cc2c(c3ccccc31)Nc1ccc(N3CCNCC3)cc1S2.[Cl-] | 0.7 to 11.5 µg/mL | 0.5 to 7.5 µg/mL | IC50 (MDA-MB-231): 0.5 to 12 µg/mL |
| 530 nM | O=C(O)CC1CCN(Cc2ccc3c(c2)Nc2nccnc2S3)CC1 |  |  |  |
| 270 to 1400 nM | O=S(=O)(NC1CCN(Cc2ccc3c(c2)Nc2nccnc2S3)CC1)c1ccccc1 |  |  |  |
|  | CN1CCN(CC#CCN2c3ccncc3Sc3ccncc32)CC1 | 21.2 µg/mL (≈ 60.3 µM) | 24.8 to 29.2 µg/mL (≈ 70.6 to 83.1 µM) | IC50 (T47D): 9.6 µg/mL (≈ 27.3 µM) |
